The record followed here is ChEMBL document CHEMBL5038661, “Identification of a Novel 2,8-Diazaspiro[4.5]decan-1-one Derivative as a Potent and Selective Dual TYK2/JAK1 Inhibitor for the Treatment of Inflammatory Bowel Disease” (J Med Chem, 2022).

For data set [1] the following is noted: human, microsomes.
Data set [2] can be described thus: in vivo. The note with it: Sprague-Dawley, rat, po, 5 mg/kg.
Data set [3] can be described thus: in vivo. The note with it: Sprague-Dawley, rat, po, 5 mg/kg. The source holds these as a separate data set.
Data set [4] can be described thus: in vivo. As to conditions: Sprague-Dawley, rat, po, 5 mg/kg. The source holds these as a separate data set.
Data set [5] is described as follows: in vivo. The note with it: Sprague-Dawley, rat, po, 5 mg/kg. This is another data set of the same source.
The nature of data set [6]: in vivo. The note with it: Sprague-Dawley, rat, po, 5 mg/kg. The source holds these as a separate data set.

For `[2H]C([2H])([2H])n1cc(Nc2ncc(C)c(N3CCC4(CCNC4=O)CC3)n2)cn1`, the Stability result in data set [1] is “Unstable”.
`Cc1cnc(Nc2cnn(C)c2)nc1N1CCC2(CCNC2=O)CC1`: the Stability result in data set [1] is listed as “Stable”. Also, the concentration in the data set “in vivo [2]” peaked (Cmax at 24 h) at 415 ng/mL. For the same compound, the CL/F (as a rule, the apparent clearance, not corrected for the fraction that reaches the circulation) at 24 h in the data set “in vivo [3]” was 41.5 mL/min/kg. The half-life (usually the time in which the quantity being followed falls by half) at 24 h in the data set “in vivo [4]” is 2.8 h. Moreover, the AUC(0-t) (as a rule, the area under the concentration-time curve up to a stated or last time point) in the data set “in vivo [5]” came to 2100 ng·h/mL. In the data set “in vivo [6]”, the bioavailability (in general, the share of a dose that reaches the circulation, judged against a reference dose that is usually intravenous) at 24 h was determined as 59.3%.
